How the values were obtained:
ICAM-1 [1] = assay: qRT-PCR of mRNA in IL-1β-stimulated HUVECs; format: cell-based, human; conditions: IL-1β 1 ng/mL 4 h, then 24 h, UA 5 μM, US597 0.2, 1, 5 μM
HepG2 cells [2] = assay: Transwell matrigel invasion assay; format: cell-based, human; conditions: HepG2, 5 μM, 24 h; control 88 ± 5
Method: An invasion assay was carried out using 24-well plate. The […] pore-sized transwell inserts were coated with matrigel at 1 mg/mL on the upper chamber. The lower chamber was filled with medium containing 20% FBS as chemoattractant agents. The coated filter and upper chamber were laid over the lower chamber. […] After incubation for 24 h at 37°C, cells were fixed in methanol for 20 min. The cells on the inner layer were softly removed with a cotton swab, and the adherent cells on undersurface of the insert were stained with 0.1% crystal violet dye for 15 min. The filters were washed with PBS and images were taken. The invading cells were counted and photographed under a light microscope (Zeiss, Germany) at × 200 magnification. Five fields were counted per filter in each group and the experiment was conducted in triplicate.

B16-F10 cells = assay: MTT cell viability assay; format: cell-based, murine; conditions: Mus musculus, B16-F10, 24 h, read-out: IC50, cell proliferation
Method: (§1) Cell viability was determined by detecting the absorbance at 570 nm in a microquant plate reader (Thermo Fisher), triplicate wells were analyzed at each dose.

ICAM-1 [3] = assay: Flow cytometry of surface expression on IL-1β-stimulated HUVECs; format: cell-based, human; conditions: 5 μM, 24 h
Method: (§2) Cells expression of ICAM-1, VCAM-1, E-selectin, integrin α4, α5, α6 and β1 were performed via flow cytometry. […] After incubation, the cells were washed twice with PBS and collected for staining. The cells and primary antibodies were incubated at 4°C for 20 min in the dark. After washing with staining buffer, cell adhesion molecule (ICAM-1, VCAM-1 and E-selectin) and integrins (integrin α6 and β1) expression on cell-surface were measured by BD FACSAriaIII flow cytometry. The data were processed by FlowJo software and expressed as the mean fluorescent intensities.

VCAM-1 [4] = assay: as above; format: cell-based, human; conditions: 5 μM, 24 h
Method: as §2

[5] = system: B16-F10 melanoma lung metastasis; assay: B16-F10/C57BL/6 mouse melanoma lung metastasis model; format: in vivo, C57BL/6 mice; conditions: 80 mg/kg/day oral, 28 days
Method: (§3) To establish the lung metastasis model, B16-F10 cells were harvested, washed with serum-free RPMI 1640 and resuspended to give the appropriate concentrations in PBS, and injected into the tail vein of C57BL/6 mice at a density of 5 × 10^4/200 μL. […] Mice weight was measured every four days for 7 times. Mice were sacrificed (n = 6) at the 28st days after tumor inoculation. The heart, liver, spleen, lung, kidney and small intestine were excised, washed with PBS, and fixed in 10% neutral buffered formalin, and these tissues were then paraffin embeddedand stained with hematoxylin and eosin (H&E). The number of surface tumor nodules was determined by visual inspection using a magnifying glass, and histological observations were performed under a microscope (Zeiss, Germany).

L02 cells = assay: MTT cell viability assay, normal liver cells; format: cell-based; conditions: L02 normal human liver cells, 24 h
Method: as §1

MHCC-97L cells = assay: MTT cell viability assay; format: cell-based; conditions: Homo sapiens, MHCC97L, 24 h, read-out: IC50, cell proliferation
Method: as §1

HepG2 cells [6] = assay: MTT cell viability assay; format: cell-based; conditions: Homo sapiens, HepG2, 24 h, read-out: IC50, cell proliferation
Method: as §1

MHCC-97H cells = assay: MTT cell viability assay; format: cell-based; conditions: Homo sapiens, MHCC97H, 24 h, read-out: IC50, cell proliferation
Method: as §1

[7] = system: integrin α6, integrin β1, FAK, Src, paxillin and PTEN; assay: Western blot of focal adhesion signaling proteins in HepG2 cells; format: cell-based, human; conditions: 24 h, UA 5 μM, US597 0.2, 1, 5 μM
Method: Cell dishes were washed with cold phosphate-buffered saline and treated with lysis buffer for several seconds at an ice-cold bath, and then cell lysates were clarified by centrifugation at 12,000 g for 5 min under 4°C and the supernatants were recovered. The concentrations of proteins were determined by the BCA method. Samples with equivalent amounts of proteins were resolved by SDS-PAGE using a 10% gel. Proteins were transferred to a polyvinyldene difluoride (PVDF) membrane. The membranes were washed for ten minutes with TBS (20 mM Tris, 160 mM NaCl) and were blocked by blocking solution (10 mM Tris-HCl (pH 7.4), 125 mM NaCl, 0.1% Tween 20, and 5% skim milk). The blots were washed three times with TBST(20 mM Tris, 160 mM NaCl, 0.1% Tween 20), and they were incubated with specific primary antibodies diluted 1:1000 in TBST solution overnight at 4°C. Subsequently, the blots were washed three times with TBST (20 mM Tris, 160 mM NaCl, 0.1% Tween 20), and then the blots were incubated with secondary antibody (horseradish peroxidase conjugated goat anti-rabbit-IgG) diluted 1:5000 in TBST solution for 2 h at 37°C. […] Chemiluminescent signals were generated using a Super Signal West Pico Chemiluminescent Substrate kit (Pierce), and detected by using the ChemiDoc XRS system (Bio-Rad). The target proteins expression was quantified by use of Image Lab analysis software (Bio-Rad).

HepG2 cells [8] = assay: Wound healing migration assay; format: cell-based, human; conditions: HepG2, 24 h after wounding; UA 5 μM, US597 0.2, 1, 5 μM
Method: SW620, B16-F10 and HepG2 cells (5 × 10^5 cells per well) were plated in 6-well plates for 24 h, a perpendicular scratch wound was generated by scratching with a 10 μL pipette tip. […] Cells were photographed using a light microscope (Zeiss, Germany) at 0 and 24 h after the drug treatment. The distance that cells migrated through the scribed area was determined by measuring the wound width at 24 h after treatment, and subtracting it from the wound width at 0 h. Experiments were repeated at least three times.

[9] = system: nine cancer cell lines (MHCC-97H, MHCC-97L, HepG2, M619, MDA-MB-231, MCF-7, HT29, SW620, B16-F10); assay: MTT cell viability assay, span over nine cancer cell lines; format: cell-based; conditions: 24 h, read-out: IC50 to suppress cell proliferation, span over nine cancer cell lines
Method: as §1

ICAM-1 [10] = assay: ICAM-1 immunohistochemistry of lung tissue; format: in vivo, C57BL/6 mice; conditions: UA group and high dose US597 group, P < 0.01
Method: Frozen sections (6 μm) were stained with anti-ICAM-1 antibody as previously described. ICAM-1 expression in lung tissue was performed with avidin-biotin complex (ABC) method. Results for ICAM-1 positive cells are shown as × 200 magnification.

HUVEC cells = assay: MTT cell viability assay, endothelial cells; format: cell-based; conditions: Homo sapiens, 24 h
Method: as §1

[11] = Toxicity in tumor metastatic mice (body weight, histopathology, blood analysis); format: in vivo, C57BL/6 mice; conditions: 28 days
Method: as §3

VCAM-1 [12] = assay: qRT-PCR of mRNA in IL-1β-stimulated HUVECs; format: cell-based, human; conditions: IL-1β 1 ng/mL 4 h, then 24 h, 5 μM

IC50 (B16-F10 cells): 31.7 µM
IC50 (HepG2 cells [6]): 33.1 µM
IC50 [9]: 31.7 to 60.1 µM
SMILES: C[C@H]1[C@H](C)CC[C@]2(C(=O)O)CC[C@]3(C)C(=CC[C@@H]4[C@@]5(C)CC[C@H](O)C(C)(C)[C@@H]5CC[C@]43C)[C@H]12 [UA, 3β-hydroxy-urs-12-en-28-oic acid]
ICAM-1 mRNA expression (ICAM-1 [1]): inhibited the induction
average number of invaded cells (HepG2 cells [2]): 75 ± 3
ICAM-1 expression, % of control (ICAM-1 [3]): no significant effect
VCAM-1 expression, % of control (VCAM-1 [4]): no significant effect
inhibitory rate, number of lung metastatic nodules [5]: 14.45%
IC50 (L02 cells): 41.9 µM
IC50 (MHCC-97L cells): 32.2 µM
IC50 (MHCC-97H cells): 36.1 µM
protein expression of integrin α6, integrin β1, FAK, Src, paxillin and PTEN [7]: the effect was prominent
cell migration in wound healing assay (HepG2 cells [8]): showed less migration in wound area
ICAM-1 expression in lung tissue vs control (ICAM-1 [10]): significantly decreased
IC50 (HUVEC cells): 51.1 µM
LYMPH ([11]; 80 mg/Kg, normal range 0.9 – 9.3, control 6.82 ± 2.17): 3.65 ± 1.48 × 10^9/L
WBC ([11]; 80 mg/Kg, normal range 1.8 – 10.7, control 9.31 ± 1.28): 7.14 ± 0.33 × 10^9/L
RBC ([11]; 80 mg/Kg, normal range 6.36 – 9.42, control 9.04 ± 0.27): 8.84 ± 2.31 × 10^12/L
HGB ([11]; 80 mg/Kg, normal range 110.0 – 151.0, control 136.42 ± 1.15): 131.56 ± 0.89 g/L
PLT ([11]; 80 mg/Kg, normal range 592 – 2972, control 1583 ± 126): 1461 ± 251 × 10^9/L
animal body loss ([11]; 80 mg/kg daily oral): did not induce significant animal body loss
histopathology of heart, liver, spleen, kidney and small intestine ([11]; 80 mg/kg daily oral, H&E): no remarkable histopathological abnormalities or lesions
VCAM-1 mRNA expression (VCAM-1 [12]): almost no change

— article PMC4496218 (Oncotarget, 2015)
